Counter-ions that a name gives are not always drawn. One block for each compound: values may come before it.
Assays:
[1] = target: T1, Lp-PLA2 in human plasma (Homo sapiens, UniProt Q13093); assay: Lp-PLA2 human plasma assay (Thio-PAF assay); type: biochemical; conditions: pooled human plasma, 2-thio-PAF substrate; read-out: pIC50 in the thio-PAF assay (converted)
T1 construct: This assay may detect the activity of Lp-PLA2 in human plasma; from tissue; host or cells: pooled human plasma
T1 sequence (Q13093 22-441): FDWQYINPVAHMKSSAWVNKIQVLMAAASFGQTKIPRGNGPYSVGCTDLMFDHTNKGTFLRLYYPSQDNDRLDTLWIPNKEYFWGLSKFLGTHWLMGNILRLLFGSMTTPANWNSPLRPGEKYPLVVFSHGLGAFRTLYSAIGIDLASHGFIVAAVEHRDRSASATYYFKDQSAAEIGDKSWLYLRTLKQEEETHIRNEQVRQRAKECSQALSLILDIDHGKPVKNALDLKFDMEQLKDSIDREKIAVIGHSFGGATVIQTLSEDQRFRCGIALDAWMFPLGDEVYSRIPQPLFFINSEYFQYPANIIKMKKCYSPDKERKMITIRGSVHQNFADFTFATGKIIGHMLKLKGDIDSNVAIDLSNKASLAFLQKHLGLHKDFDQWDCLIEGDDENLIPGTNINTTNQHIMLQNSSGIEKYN
Description: (3) Lipoprotein-Associated Phospholipase A2 (Lp-PLA2) Human Plasma Assay (Also Referred to as “Thio-PAF Assay”)
The human plasma assay utilizes a thioester analog of PAF (phosphatidylcholine), where hydrolysis yields to the formation of a phospholipid containing a free thiol group. The amount of thiol is quantitated continuously by reacting with CPM (7-diethylamino-3-(4′-maleimidylphenyl)-4-methylcoumarin), a maleimide which increases in fluoresence after Michael addition of thiols. This assay may detect the activity of Lp-PLA2 in human plasma, as determined by specific inhibition by Lp-PLA2 inhibitors.
The thio-PAF assay was run as a quenched 15 μL assay. Compounds source plate was prepared by making 1:3 (by volume) serial dilution of the compounds into pure DMSO on 384-well microplate. 0.01 μL of compounds on compound source plate were transferred to 384 well Greiner 784076 (black) low-volume plates by ECHO liquid dispenser. 8 μL pooled human plasma, which was previously aliquoted and frozen, was added. Plates were centrifuged for 10 sec at 500 rpm. After 30 minutes preincubation, 2 μL of substrate solution comprising 2.5 mM 2-thio-PAF [from ethanol stock], 32 μM CPM [from a DMSO stock] and 3.2 mM NEM (N-ethylmaleimide) [made fresh daily in DMSO] in assay buffer of 50 mM HEPES, pH 7.4, 150 mM NaCl, 1 mM CHAPS was added to 384 well Greiner 784076 (black) low-volume plates by BRAVO liquid handling station. After 2 mins, reaction was quenched with 5 μL of 5% aqueous trifluoroacetic acid (TFA). Plates were covered to protect from light and incubated for 40 min at room temperature. Plates were read at ex: 380/em: 485 using-Envision microplate reader. pIC50 data, curve and QC analysis was conducted by using XLFit module in Excel.

[2] = target: T2, recombinant human Lp-PLA2 (Homo sapiens, UniProt Q13093); assay: Recombinant human Lp-PLA2 assay (rhLp-PLA2, PED6 assay); type: biochemical; conditions: recombinant human Lp-PLA2, PED6 substrate; upper limit for pIC50 in this assay is 9.3
T2 sequence (Q13093 22-441): T1 sequence (Q13093 22-441)
Description: (1) Recombinant Human Lp-PLA2 Assay (rhLp-PLA2) (Also Referred to as “PED6” Assay)
N-((6-(2,4-dinitrophenyl)amino)-hexanoyl)-2-(4,4-difluoro-5,7-dimethyl-4-bora-3a,4a-diaza-s-indacene-3-pentanoyl)-1-hexadecanoyl-sn-glycero-3-phosphoethanolamine, triethylammonium salt (PED6) is a commercially available fluorescently-labeled phospholipid, which is commercially available from Invitrogene and Molecular Probes. There is a quenching […] and a Bodipy fluorescein (FL) group in the sn2 position. Upon cleavage with Lp-PLA2, the Bodipy FL group is liberated and then may result in an increase in fluorescence. Inhibitors of Lp-PLA2 therefore prevent this cleavage and no fluorescent increase is observed.
The PED6 assay was run as an unquenched 10 μL assay. The source plate containing the compounds to be tested was prepared by making 1:3 (by volume) serial dilution of the compounds within DMSO on 384-well microplate. Then, 0.01 μL of the compounds on compound source plate were transferred into 384 well Greiner 784076 (black) plates using ECHO liquid dispenser. 5 µL of recombinant human Lp-PLA2 enzyme (4 nM (or 110 pM) rhLp-PLA2 in assay buffer of 50 mM HEPES, pH 7.4, 150 mM NaCl, 1 mM CHAPS) was added to each well of the plate. Plates were centrifuged for 10 sec at 500 rpm. After 30 minutes preincubation, 5 µL of substrate (4 μM (or 5 μM) PED6 [from 5 mM DMSO stock] in assay buffer of 50 mM HEPES, pH 7.4, 150 mM NaCl, 1 mM CHAPS) was added to 384 well Greiner 784076 (black) plates. Plates were centrifuged for 10 sec at 500 rpm. The plate was covered to protect it from light and incubated for 20 min at room temperature. The plates were read for fluorescence intensity at ex: 480/em: 540 using ViewLux microplate imager for Envision spectrofluroimeters pIC50 data, curve and QC analysis was conducted by using XL fit module in Excel.
The compounds described below were tested generally according to the PED6 assay described above.

SMILES: CN1CCn2c1cc(OCc1ccc(Oc3cc(C#N)cc(C(F)(F)F)c3)c(F)c1)nc2=O [Example 150, 3-(2-fluoro-4-(((1-methyl-5-oxo-1,2,3,5-tetrahydroimidazo[1,2-c]pyrimidin-7-yl)oxy)methyl)phenoxy)-5-(trifluoromethyl)benzonitrile, trifluoroacetic acid salt]
IC50 [1]: ≤ 0.1 µM
IC50 [2]: ≤ 0.01 µM

SMILES: CN1CCn2c1cc(OCc1cc(F)c(Oc3cc(F)cc(F)c3)c(F)c1)nc2=O [Example 99, 7-((4-(3,5-difluorophenoxy)-3,5-difluorobenzyl)oxy)-1-methyl-2,3-dihydroimida-zo[1,2-c]pyrimidin-5(1H)-one]
IC50 [1]: ≤ 1 µM
IC50 [2]: ≤ 0.01 µM

SMILES: CN1CCn2c1cc(OCc1ccc(Oc3ccc(C#N)c(Cl)c3)c(C#N)c1)nc2=O [Example 122, 2-chloro-4-(2-cyano-4-(((1-methyl-5-oxo-1,2,3,5-tetrahydroimidazo[1,2-c]pyrimidin-7-yl)oxy)methyl)phenoxy)benzonitrile]
IC50 [1]: ≤ 0.1 µM
IC50 [2]: ≤ 0.01 µM

SMILES: CN1CCn2c1cc(OCc1cc(F)c(Oc3ccc(C(F)(F)F)c(F)c3)c(F)c1)nc2=O [Example 140, 7-((3,5-difluoro-4-(3-fluoro-4-(trifluoromethyl)phenoxy)benzyl)oxy)-1-methyl-2,3-dihydroimidazo[1,2-c]pyrimidin-5(I H)-one]
IC50 [1]: ≤ 0.1 µM
IC50 [2]: ≤ 0.001 µM

SMILES: CN1CCn2c1cc(OCc1ccc(Oc3ccc(Cl)nc3)c(F)c1)nc2=O [Example 103, 7-((4-((6-chloropyridin-3-yl)oxy)-3-fluorobenzyl)oxy)-1-methyl-2,3-dihydroimid-azo[1,2-c]pyrimidin-5(1H)-one, trifluoroacetic acid salt]
IC50 [1]: ≤ 0.1 µM
IC50 [2]: ≤ 0.01 µM

SMILES: CN1CCn2c1cc(OCc1ccc(Oc3ccc(C#N)c(F)c3)c(F)c1)nc2=O [Example 136, 2-fluoro-4-(2-fluoro-4-(((1-methyl-5-oxo-1,2,3,5-tetrahydroimidazo[1,2-c]pyrimidin-7-yl)oxy)methyl)phenoxy)benzonitrile]
IC50 [1]: ≤ 1 µM
IC50 [2]: ≤ 0.01 µM

SMILES: CN1CCn2c1cc(OCc1ccc(Oc3ccc(C#N)c(Cl)c3)c(F)c1)nc2=O [Example 128, 2-chloro-4-(2-fluoro-4-(((1-methyl-5-oxo-1,2,3,5-tetrahydroimidazo[1,2-c]pyrimidin-7-yl)oxy)methyl)phenoxy)benzonitrile]
IC50 [1]: ≤ 0.1 µM
IC50 [2]: ≤ 0.001 µM

SMILES: CN1CCn2c1cc(OCc1cc(F)c(Oc3cccc(C(F)(F)F)c3)c(F)c1)nc2=O [Example 102, 7-((3,5-difluoro-4-(3-(trifluoromethyl)phenoxy)benzyl)oxy)-1-methyl-2,3-dihydroimidazo[1,2-c]pyrimidin-5(1H)-one]
IC50 [1]: ≤ 0.1 µM
IC50 [2]: ≤ 0.001 µM

SMILES: CN1CCn2c1cc(OCc1ccc(Oc3cncc(C(F)(F)F)c3)c(C#N)c1)nc2=O [Example 115, 5-(((1-methyl-5-oxo-1,2,3,5-tetrahydroimidazo[1,2-c]pyrimidin-7-yl)oxy)methyl)-2-((5-(trifluoromethyl)pyridin-3-yl)oxy)benzonitrile, trifluoroacetic acid salt]
IC50 [1]: ≤ 0.1 µM
IC50 [2]: 0.00398 µM

SMILES: N#Cc1cc(COc2cc3n(c(=O)n2)CCN3)ccc1Oc1cnc(F)c(F)c1 [Example 117, 2-((5,6-difluoropyridin-3-yl)oxy)-5-(((5-oxo-1,2,3,5-tetrahydroimidazo[1,2-c]pyrimidin-7-yl)oxy)methyl)benzonitrile]
IC50 [2]: ≤ 0.01 µM

Further lines, results first:

IC50 [1]: ≤ 1 µM
IC50 [2]: ≤ 0.01 µM
SMILES: CN1CCn2c1cc(OCc1ccc(Oc3ccc(F)c(C(F)(F)F)c3)cc1)nc2=O [Example E29, 7-((4-(4-fluoro-3-(trifluoromethyl)phenoxy)benzyl)oxy)-1-methyl-2,3-dihydroimid-azo[1,2-c]pyrimidin-5(1H)-one]

IC50 [1]: ≤ 0.1 µM
IC50 [2]: ≤ 0.001 µM
SMILES: CN1CCn2c1cc(OCc1ccc(Oc3ccc(F)c(F)c3)c(F)c1)nc2=O [Example E4, 7-((4-(3,4-difluorophenoxy)-3-fluorobenzyl)oxy)-1-methyl-2,3-dihydroimidazo[1,2-c]pyrimidin-5(1H)-one]

IC50 [1]: ≤ 0.1 µM
IC50 [2]: ≤ 0.001 µM
SMILES: CN1CCn2c1cc(OCc1cc(F)c(Oc3ccc(F)c(C(F)(F)F)c3)c(F)c1)nc2=O [Example E81, 7-((3,5-difluoro-4-(4-fluoro-3-(trifluoromethyl)phenoxy)benzyl)oxy)-1-methyl-2,3-dihydroimidazo[1,2-c]pyrimidin-5(1H)-one]

IC50 [1]: ≤ 0.1 µM
IC50 [2]: ≤ 0.01 µM
SMILES: CC(C)N1CCn2c1cc(OCc1ccc(Oc3ccc(Cl)c(C(F)(F)F)c3)cc1)nc2=O [Example E59, 7-((4-(4-chloro-3-(trifluoromethyl)phenoxy)benzyl)oxy)-1-isopropyl-2,3-dihydroim-idazo[1,2-c]pyrimidin-5(1H)-one]

IC50 [1]: ≤ 0.1 µM
IC50 [2]: < 0.000501 µM
SMILES: CN1CCn2c1cc(OCc1ccc(Oc3ccc(C#N)c(C(F)(F)F)c3)c(C#N)c1)nc2=O [Example E78, 4-(2-cyano-4-(((l-methyl-5-oxo-1,2,3,5-tetrahydroimidazo[1,2-c]pyrimidin-7-yl)oxy)methyl)phenoxy)-2-(trifluoromethyl)benzonitrile]

IC50 [1]: ≤ 0.1 µM
IC50 [2]: 0.00126 µM
SMILES: CN1CCn2c1cc(OCc1ccc(Oc3ccnc(C(F)(F)F)c3)c(C#N)c1)nc2=O [Example E80, 5-(((1-methyl-5-oxo-1,2,3,5-tetrahydroimidazo[1,2-c]pyrimidin-7-yl)oxy)methyl)-2-((2-(trifluoromethyl)pyridin-4-yl)oxy)benzonitrile]

IC50 [1]: ≤ 0.1 µM
IC50 [2]: ≤ 0.001 µM
SMILES: CN1CCn2c1cc(OCc1cc(F)c(Oc3ccc(Cl)c(F)c3)c(F)c1)nc2=O [Example E86, 7-((4-(4-chloro-3-fluorophenoxy)-3,5-difluorobenzyl)oxy)-1-methyl-2,3-dihydroimi-dazo[1,2-c]pyrimidin-5(1H)-one]

IC50 [1]: ≤ 0.1 µM
IC50 [2]: ≤ 0.001 µM
SMILES: CN1CCn2c1cc(OCc1ccc(Oc3ccc(Cl)c(C(F)(F)F)c3)c(F)c1)nc2=O [Example E85, 7-((4-(4-chloro-3-(trifluoromethyl)phenoxy)-3-fluorobenzyl)oxy)-1-methyl-2,3-dihydroimidazo[1,2-c]pyrimidin-5(1H)-one]

IC50 [1]: ≤ 1 µM
IC50 [2]: ≤ 0.001 µM
SMILES: O=c1nc(OCc2ccc(Oc3cc(F)c(F)c(F)c3)c(F)c2)cc2n1CCN2 [Example E77, 7-((3-fluoro-4-(3,4,5-trifluorophenoxy)benzyl)oxy)-2,3-dihydroimidazo[1,2-c]pyrimidin-5(1H)-one, trifluoroacetic acid salt]

IC50 [1]: ≤ 1 µM
IC50 [2]: ≤ 0.001 µM
SMILES: CN1CCn2c1cc(OCc1ccc(Oc3ccc(Br)c(F)c3)c(C#N)c1)nc2=O [Example E70, 2-(4-bromo-3-fluorophenoxy)-5-(((I-methyl-5-oxo-1,2,3,5-tetrahydroimidazo[1,2-c]pyrimidin-7-yl)oxy)methyl)benzonitrile]

Source: patent US8975400B2, “2,3-dihydroimidazo[1, 2-c] pyrimidin-5(1 H)-one compounds use as LP-PLA2 inhibitors” (Glaxo Group Limited, priority 2011, dated 2015)
